The text below walks through data of ChEMBL document CHEMBL3507680, “University of Dundee, Gates Library screen for HepG2 cell viability”.

The nature of the data set: Human HepG2 cell viability assay in 384 well format. The format is toxicity, cell-based. On the set-up: dose 125 nL, time 70.5 hour; cytotoxicity at 70.5 h: concentration not given beside the values. The settings on record: HepG2 cells, read-out: Inhibition.
For the compound `O=C(c1ccco1)N1CCC2(CC1)CCN(c1ncccn1)CC2`, the cytotoxicity at 70.5 h stood at 4.21%. For `CC[C@H]1CN2CC[C@H]1C[C@@H]2CNC(=O)Nc1cccc(C(F)(F)F)c1`, the cytotoxicity at 70.5 h was -3.6%. The figure for `COC(=O)[C@@H]1CN(C(=O)NC(C)C)CCN1S(=O)(=O)c1ccccc1` is -2.94%; for `Cn1nc(-c2cccs2)cc1[C@H]1CN2CC[C@H]1C[C@@H]2CNS(C)(=O)=O` it is -6.43%; for `Cc1oncc1C(=O)N1CC2CC1(C(=O)N1CCCC1)C2` it is 8.06%.

`CN(C)C(=O)C1CCC2(CCN(Cc3ccc4ccccc4n3)CC2)O1` (stereo unspecified): the cytotoxicity at 70.5 h is -8.67%. As for `c1coc(CN2CCC3(CC2)COC(COCC2CCOCC2)C3)c1` (stereo unspecified), the cytotoxicity at 70.5 h was -12.1%. The figure for `CCN1C[C@H]2CCN(Cc3ccncc3)C(=O)[C@@H]2C1` is -12%. Consider `CN(C)C(=O)CN1CCC2(CCN(C(=O)N3CCCC3)CC2)C1=O`, for which the cytotoxicity at 70.5 h is -3.29%. Under `CN(C)C(=O)CN1CCC2(CCN(S(C)(=O)=O)CC2)C1=O` stands -0.161%; under `CCN1C(=O)CC[C@]12CC[C@@H](NC(=O)c1cnccn1)CC2`, 12.9%; under `Cc1cccc(CN2CCC23CCCNC3)n1` (stereo unspecified), -9.59%. Regarding `CS(=O)(=O)N1C[C@H]2C[C@H](C(=O)N3CCOCC3)[C@@H](C1)O2`, the cytotoxicity at 70.5 h was -6.47%. Under `O=C1CCC2(CCCN(C(=O)NCc3ccccc3)CC2)N1` (stereo unspecified) stands -8.58%.

As to `O=C(NC1CC1)N1CC[C@H]2[C@H]1CCN2c1ncccn1`, the cytotoxicity at 70.5 h was -6.35%.

As to `CC(=O)N1CCC2(CCCN(S(=O)(=O)c3ccc(F)cc3)C2)C1` (stereo unspecified), the cytotoxicity at 70.5 h stood at 5.56%. On to `NC(=O)N1CCC2(CC1)CC(=O)N(CC1CCCO1)c1ccccc12` (stereo unspecified), for which the cytotoxicity at 70.5 h is 5.57%.

As for `CO[C@H]1CCN(C(=O)c2cc(C)on2)[C@H]1Cc1ccncc1`, the cytotoxicity at 70.5 h was -7.23%. Under `CC(C)NC(=O)CC1CC2(CCN(CC3CC3)CC2)Oc2ccccc21` (stereo unspecified) stands 15.7%; under `Cn1cccc1C(=O)N1C[C@H]2CN(Cc3cccs3)C[C@H]2C1`, -4.47%. Under `CO[C@@H]1CCN(C(=O)c2ccsc2)[C@@H]2CN(CC3CC3)C[C@@H]21` stands -4.96%; under `CNC(=O)CC1CC2(CCN(CC3CC3)CC2)Oc2ccccc21` (stereo unspecified), -6.72%. Under `CN1C(=O)CC(c2cnn(C)c2)C12CCN(CC1CCOCC1)CC2` (stereo unspecified) stands -9.88%; under `CO[C@H]1CCN(C(=O)c2ccsc2)[C@@H]2CN(CC3CC3)C[C@H]12`, -7.14%. For `O=C(CC1CC2(CCN(CC3CC3)CC2)Oc2ccccc21)NC1CC1` (stereo unspecified), the cytotoxicity at 70.5 h is -5.53%. Under `CC(C)C(=O)N1CC[C@H]2N(C)CC[C@@]2(C(=O)N2CCCC2)CC1` stands -7.87%; under `COCCN1CC2(CCN(C(=O)c3ccno3)CC2)c2ccccc21`, 27.9%.

Consider `CC(=O)N1CC[C@H]2OCC[C@@]2(C(=O)NCCc2ccccn2)C1`, for which the cytotoxicity at 70.5 h worked out at 4.18%. For `COCCN1CCC2(CC1)CC(NC(=O)C1CC1)c1ccccc1O2` (stereo unspecified), the cytotoxicity at 70.5 h is -5.15%.

As to `CC(C)CC(=O)NC1CC2(CCN(CCF)CC2)Oc2ccccc21` (stereo unspecified), the cytotoxicity at 70.5 h was -6.46%. Under `COCC(=O)N1CCC2(CC1)C(=O)N(Cc1cccnc1)CCN2C` stands 28.3%; under `CCC(=O)N1CCC2(CC1)C(=O)N(Cc1cccnc1)CCN2C`, -3.61%. Regarding `O=C1Nc2ccccc2C12CCN(Cc1ccccn1)CC2`, the cytotoxicity at 70.5 h came out at 0.291%. On to `CN1CC[C@H]2OCC[C@@]2(C(=O)NCCc2ccccn2)C1`, for which the cytotoxicity at 70.5 h was determined as 21.6%.

For the compound `CC[C@H]1N(CC2CCC2)CCC[C@]12CCC(=O)N2Cc1ccncc1`, the cytotoxicity at 70.5 h is -5.93%.

`O=C1C[C@H]2[C@@H](CCN2Cc2ccccn2)N1CCN1CCOCC1`: the cytotoxicity at 70.5 h was 6.45%.
